Format in all cases: cell-based
One assay concerns GP2D. Kind of assay: 3D-CTG proliferation inhibition of GP2D cells. Particulars: cell proliferation, read after the 8th day of incubation, read-out: GP2D, IC50 (nM) KRAS G12D. Here is the method: (§1) • (1) GP2D and HPAC cells were revived in DMEM medium containing 10% fetal bovine serum and used for experiments after the cells were recovered. • (2) On the first day, the cells were rinsed once with PBS, preheated trypsin was added, and the cells were placed in a 37 °C 5% CO2 incubator for 3-5 minutes. The digestion was terminated by adding an appropriate amount of complete culture medium (containing 10% fetal bovine serum), and the cells were transferred to a centrifuge tube and centrifuged at 1000 rpm for 5 minutes. • (3) The cells were resuspended in complete culture medium, counted, and adjusted to the appropriate cell concentration with complete culture medium. • (4) Using the ECHO 655 ultrasonic liquid handling system, 0.2 µl of the prepared 200× serial dilution compound (final DMSO concentration of 0.5%) was added to a 384-well plate. 40 µl of the cell suspension counted in step (3) was then added to each well and the plate was incubated in a 5% CO2 incubator at 37 °C. • (6) After the 8th day of incubation, 3D CTG detection reagent was added to each well. • (7) Signal values were read using Envision. • (8) Data analysis: • a) DMSO and culture medium were used to test the stability of the experimental method: • H = DMSO well • L = Culture medium well H, CV% (DMSOwell) = 100 × (SDvalueofDMSOwell/averagevalueofDMSOwell) [formula] L, CV% (correspondingculturemediumwell) = 100 × (SDvalueofculturemediumwell/average [formula] value of corresponding culture medium well) [formula] [formula] • b) IC50 values were fitted using the nonlinear regression equation in XLfit 5.5.0 software. Y = Bottom + (Top−Bottom)/(1+10^(∧)((LogIC50−X)*HillSlope)) [formula] • X: Log value of compound concentration • Y: Inhibition rate (% inh)

Assay [1] deals with pERK in KRAS G12D mutant cell line AGS. Kind of assay: Inhibitory effect on intracellular pERK by In-Cell Western Assay (384-well). The conditions noted are these: Homo sapiens; pERK inhibition, AGS cells, 3 h incubation; read-out: AGS, IC50 (nM) KRAS p.G12D. Here is the method: (7) The cells were fixed. (8) The cells were washed twice with PBS. (9) The blocking solution was added and the cells were incubated at room temperature for 1 h. […] (11) The cells were washed twice with PBST (PBS + 0.05% Tween 20) for 2 minutes each time.

For another assay, the system named is ASPC-1. Kind of assay: 3D-CTG proliferation inhibition of KRAS G12D mutant cells. Particulars: Homo sapiens, ASPC1, cell proliferation, read after the 7th day of incubation. As for the experimental part:
(§2) (1) On the first day, the following cells were revived with the corresponding culture medium and incubated in a 5% CO2 incubator at 37 °C until confluence:
(§3) (2) On the second day, the cells were rinsed once with PBS, preheated trypsin was added, and the cells were placed in a 37 °C 5% CO2 incubator for digestion for 3~5 minutes. The digestion was terminated by adding an appropriate amount of complete culture medium (containing 10% fetal bovine serum), and the cells were transferred to a centrifuge tube and centrifuged at 1000 rpm for 5 minutes. (3) The cells were resuspended in complete culture medium, counted, and adjusted to the appropriate cell concentration with complete culture medium. (4) 90 µl/well of cell suspension was added to a 96-well plate and incubated in a 5% CO2 incubator at 37 °C overnight. (5) Each well was added with 10 µl of the prepared 10× serial dilution compound (final DMSO concentration was 0.5%) and incubated in a 37°C 5% CO2 incubator. (6) After the 7th day of incubation, 50 µl of 3D CTG detection reagent was added to each well and the cells were shaken at 350 rpm for 20 minutes. (7) Signal values were read using an enzyme meter. (8) Data analysis: IC50 values were fitted using the nonlinear regression equation in Graphpad software. […]

In another assay the test system is Panc04.03. Described as above. The conditions noted are these: Homo sapiens, Panc 04.03, cell proliferation, read after the 7th day of incubation. As for the experimental part: as §2, §3
Another assay has as its system HPAC. Kind of assay: 3D-CTG proliferation inhibition of HPAC cells. The conditions noted are these: Homo sapiens, read-out: IC50 (nM) KRAS G12D, Table D-2, titled HPAC, cell proliferation, read after the 8th day of incubation, read-out: GP2D, IC50 (nM) KRAS G12D. Here is the method: as §1, with “L, CV% (correspondingculturemediumwell) = 100 × (SDvalueofculturemediumwell/average [formula] value of corresponding culture medium well) [formula] [formula] • b) IC50 values were fitted using the nonlinear regression equation in XLfit 5.5.0 software. Y = Bottom + (Top−Bottom)/(1+10^(∧)((LogIC50−X)*HillSlope)) [formula] • X: Log value of compound concentration • Y: Inhibition rate (% inh)” left out

For assay [2], the system named is pERK in KRAS G12D mutant cell line ASPC-1. Kind of assay: Inhibitory effect on intracellular pERK by In-Cell Western Assay (96-well). Particulars: Homo sapiens, ASPC1; pERK inhibition, ASPC-1 cells, 2 h incubation; read-out: ASPC-1, IC50 (nM) KRAS p.G12D. As for the experimental part: (2) On the first day, the following cells were revived with the corresponding culture medium and incubated in a 5% CO2 incubator at 37 °C until confluence:
(2) On the third day, the culture medium was removed, 2 mL of trypsin was added for digestion, and the cells were placed in an incubator until the cells detached. (3) 5 mL of fresh culture medium was added to resuspend the cells to terminate the digestion, and the cells were gently pipetted and centrifuged at 1000 rpm for 5 minutes at room temperature. (4) The supernatant was removed, and 5 mL of new culture medium was added to resuspend the cells and count them. (5) The cells were adjusted to the appropriate cell concentration with complete culture medium and plated in a 96-well plate. 90 µL of cells were added to each well, the cells were incubated in a 5% CO2 incubator at 37 °C overnight. (6) 10 µL of the prepared serial dilution compound (DMSO final concentration was 0.5%) was added and the cells were incubated in a 5% CO2 incubator at 37 °C for 2 h. (7) The supernatant was discarded, and 200 µL of 4% paraformaldehyde fixative was added to fix the cells. (8) The cells were washed three times with TBST. (9) The blocking solution was added and the cells were incubated at room temperature for 1 h. […]

The source of these data is EP4722217A1, “PYRIMIDO-PYRIDINE COMPOUND, PHARMACEUTICAL COMPOSITION THEREOF AND USE THEREOF” (Sunshine Lake Pharma Co., Ltd., priority 2023, dated 2025).

Structures are written as SMILES.

Consider `C#Cc1c(F)ccc2cc(O)cc(-c3nc(C#C)c4c(N5CC6CCC(C5)N6)nc(OCC56CC(=C)CN5CC(=C)C6)nc4c3F)c12` [Example 6], for which, in the assay with GP2D, the IC50 was 1.6 nM.

For `C#Cc1c(F)ccc2cc(O)cc(-c3nc(C#CC)c4c(N5CC6CCC(C5)N6)nc(OCC56CC(=C)CN5CC(=C)C6)nc4c3F)c12` [Example 2], the IC50 in the assay on GP2D worked out at 0.17 nM; in assay [1] it was 0.4 nM; in the assay on ASPC-1, 0.42 nM; in the assay on Panc04.03, 0.85 nM; with HPAC, 0.77 nM; in assay [2], 0.86 nM.

With `C=C1CN2CC(=C)CC2(COc2nc(N3CC4CCC(C3)N4)c3c(C#CC)nc(-c4cc(O)cc5ccc(F)c(CC)c45)c(F)c3n2)C1` [Example 9], in the assay with GP2D, the IC50 is 0.19 nM.

On to `C#Cc1c(F)ccc2cc(O)cc(-c3nc(C#CC)c4c(N5CC6CCC(C5)N6)nc(OCC56CCCN5CC(=CF)C6)nc4c3F)c12` (centres unmarked) [Example 11], for which the IC50 with GP2D was 0.03 nM.

For `C=C1CN2CC(=C)CC2(COc2nc(N3CC4CCC(C3)N4)c3c(C#CC)nc(-c4cc(N)cc(Cl)c4C(F)(F)F)c(F)c3n2)C1` [Example 10], in the assay with GP2D, the IC50 amounted to 12.4 nM.

Take `C#Cc1c(F)ccc2cc(O)cc(-c3nc(C#CC)c4c(N5CC6CCC(C5)N6)nc(OCC56CCCN5CC(=C)C6)nc4c3F)c12` (centres unmarked) [Example 5]: the IC50 with GP2D came to 0.07 nM.
